Experimental data: the NIST ThermoML archive (doi:10.1016/j.jct.2018.11.004)
Where “and” joins values, the source holds several entries; their conditions need not be identical. Equal entries are not always repeated.

Tests used:
[1] = for molar entropy: 101.33 kPa, Small (less than 1 g) adiabatic calorimetry
[2] = Molar enthalpy of transition or fusion

CC(C)[C@@H]1CC[C@@H](C)C[C@H]1O [L-menthol]
Settings	Molar enthalpy of transition or fusion [kcal/mol]	Triple point temperature [K]	molar entropy [J/K/mol]	vapor or sublimation pressure
[1], 5 K, Crystal 1	–	–	0.2864	–
[1], 10 K, Crystal 1	–	–	2.099	–
[1], 15 K, Crystal 1	–	–	5.656	–
[1], 20 K, Crystal 1	–	–	10.35	–
[1], 25 K, Crystal 1	–	–	15.64	–
[1], 30 K, Crystal 1	–	–	21.2	–
[1], 35 K, Crystal 1	–	–	26.81	–
[1], 40 K, Crystal 1	–	–	32.36	–
[1], 45 K, Crystal 1	–	–	37.82	–
[1], 50 K, Crystal 1	–	–	43.18	–
[1], 55 K, Crystal 1	–	–	48.45	–
[1], 60 K, Crystal 1	–	–	53.64	–
[1], 65 K, Crystal 1	–	–	58.76	–
[1], 70 K, Crystal 1	–	–	63.82	–
[1], 75 K, Crystal 1	–	–	68.83	–
[1], 80 K, Crystal 1	–	–	73.79	–
[1], 85 K, Crystal 1	–	–	78.72	–
[1], 90 K, Crystal 1	–	–	83.6	–
[1], 95 K, Crystal 1	–	–	88.45	–
[1], 100 K, Crystal 1	–	–	93.27	–
[1], 105 K, Crystal 1	–	–	98.05	–
[1], 110 K, Crystal 1	–	–	102.8	–
[1], 115 K, Crystal 1	–	–	107.5	–
[1], 120 K, Crystal 1	–	–	112.2	–
[1], 125 K, Crystal 1	–	–	116.8	–
[1], 130 K, Crystal 1	–	–	121.4	–
[1], 135 K, Crystal 1	–	–	126	–
[1], 140 K, Crystal 1	–	–	130.6	–
[1], 145 K, Crystal 1	–	–	135.1	–
[1], 150 K, Crystal 1	–	–	139.5	–
[1], 155 K, Crystal 1	–	–	144	–
[1], 160 K, Crystal 1	–	–	148.4	–
[1], 165 K, Crystal 1	–	–	152.8	–
[1], 170 K, Crystal 1	–	–	157.2	–
[1], 175 K, Crystal 1	–	–	161.5	–
[1], 180 K, Crystal 1	–	–	165.8	–
[1], 185 K, Crystal 1	–	–	170.1	–
[1], 190 K, Crystal 1	–	–	174.4	–
[1], 195 K, Crystal 1	–	–	178.7	–
[1], 200 K, Crystal 1	–	–	182.9	–
[1], 205 K, Crystal 1	–	–	187.1	–
[1], 210 K, Crystal 1	–	–	191.4	–
[1], 215 K, Crystal 1	–	–	195.5	–
[1], 220 K, Crystal 1	–	–	199.7	–
[1], 225 K, Crystal 1	–	–	203.9	–
[1], 230 K, Crystal 1	–	–	208.1	–
[1], 235 K, Crystal 1	–	–	212.2	–
[1], 240 K, Crystal 1	–	–	216.3	–
[1], 245 K, Crystal 1	–	–	220.5	–
[1], 250 K, Crystal 1	–	–	224.6	–
[1], 255 K, Crystal 1	–	–	228.7	–
[1], 260 K, Crystal 1	–	–	232.9	–
[1], 265 K, Crystal 1	–	–	237	–
[1], 270 K, Crystal 1	–	–	241.2	–
[1], 273.64 K, Crystal 1, Closed cell (Static) method	–	–	–	0.000244 kPa
[1], 273.65 K, Crystal 1, Closed cell (Static) method	–	–	–	0.000244 kPa and 0.000242 kPa
[1], 275 K, Crystal 1	–	–	245.3	–
[1], 277.38 K, Crystal 1, Closed cell (Static) method	–	–	–	0.000399 kPa
[1], 277.41 K, Crystal 1, Closed cell (Static) method	–	–	–	0.000401 kPa
[1], 277.5 K, Crystal 1, Closed cell (Static) method	–	–	–	0.000403 kPa
[1], 278.15 K, Crystal 1, Closed cell (Static) method	–	–	–	0.000441 kPa and 0.00044 kPa
[1], 278.16 K, Crystal 1, Closed cell (Static) method	–	–	–	0.00044 kPa
[1], 280 K, Crystal 1	–	–	249.5	–
[1], 282.34 K, Crystal 1, Closed cell (Static) method	–	–	–	0.000758 kPa and 0.000756 kPa and 0.000759 kPa
[1], 283.15 K, Crystal 1, Closed cell (Static) method	–	–	–	0.000839 kPa and 0.00084 kPa
[1], 285 K, Crystal 1	–	–	253.6	–
[1], 286.97 K, Crystal 1, Closed cell (Static) method	–	–	–	0.001352 kPa and 0.001354 kPa
[1], 286.98 K, Crystal 1, Closed cell (Static) method	–	–	–	0.001355 kPa
[1], 288.15 K, Crystal 1, Closed cell (Static) method	–	–	–	0.001557 kPa and 0.001559 kPa
[1], 288.16 K, Crystal 1, Closed cell (Static) method	–	–	–	0.001558 kPa
[1], 290 K, Crystal 1	–	–	257.8	–
[1], 291.56 K, Crystal 1, Closed cell (Static) method	–	–	–	0.002353 kPa
[1], 291.57 K, Crystal 1, Closed cell (Static) method	–	–	–	0.002354 kPa
[1], 291.6 K, Crystal 1, Closed cell (Static) method	–	–	–	0.002364 kPa
[1], 293.14 K, Crystal 1, Closed cell (Static) method	–	–	–	0.002829 kPa and 0.002828 kPa and 0.002831 kPa
[1], 295 K, Crystal 1	–	–	261.9	–
[1], 296.23 K, Crystal 1, Closed cell (Static) method	–	–	–	0.004057 kPa and 0.004052 kPa
[1], 296.25 K, Crystal 1, Closed cell (Static) method	–	–	–	0.004063 kPa
[1], 298.15 K, Crystal 1	–	–	264.6	–
[1], 298.15 K, Crystal 1, Closed cell (Static) method	–	–	–	0.005047 kPa and 0.005039 kPa and 0.005033 kPa
[1], 300 K, Crystal 1	–	–	266.1	–
[1], 300.84 K, Crystal 1, Closed cell (Static) method	–	–	–	0.006809 kPa
[1], 300.85 K, Crystal 1, Closed cell (Static) method	–	–	–	0.006831 kPa
[1], 300.86 K, Crystal 1, Closed cell (Static) method	–	–	–	0.006832 kPa
[1], 303 K, Metastable liquid	–	–	–	0.01038 kPa and 0.01037 kPa
[1], 303.14 K, Crystal 1, Closed cell (Static) method	–	–	–	0.008771 kPa and 0.008757 kPa and 0.008761 kPa
[1], 305 K, Crystal 1	–	–	270.4	–
[1], 305.45 K, Crystal 1, Closed cell (Static) method	–	–	–	0.01128 kPa
[1], 308.15 K, Crystal 1, Closed cell (Static) method	–	–	–	0.01501 kPa and 0.015 kPa
[1], 308.15 K, Metastable liquid	–	–	–	0.01672 kPa and 0.0167 kPa
[1], 308.18 K, Metastable liquid	–	–	–	0.01676 kPa
[1], 308.19 K, Metastable liquid	–	–	–	0.01678 kPa
[1], 308.2 K, Metastable liquid	–	–	–	0.01678 kPa
[1], 310 K, Crystal 1	–	–	274.6	–
[1], 310.04 K, Crystal 1, Closed cell (Static) method	–	–	–	0.01833 kPa
[1], 310.07 K, Crystal 1, Closed cell (Static) method	–	–	–	0.0184 kPa and 0.01842 kPa
[1], 313.38 K, Metastable liquid	–	–	–	0.02657 kPa and 0.02658 kPa and 0.02656 kPa
[1], 314.67 K, Crystal 1, Closed cell (Static) method	–	–	–	0.02949 kPa and 0.02946 kPa
[1], 315 K, Crystal 1	–	–	278.9	–
[1], 315.6 K, Crystal 1	–	–	279.4	–
[1], 315.6 K, Liquid	–	–	322.1	–
[1], 318.43 K, Liquid	–	–	–	0.0408 kPa
[1], 318.46 K, Liquid	–	–	–	0.04088 kPa
[1], 318.47 K, Liquid	–	–	–	0.04094 kPa
[1], 320 K, Liquid	–	–	327.3	–
[1], 323.48 K, Liquid	–	–	–	0.06146 kPa
[1], 323.5 K, Liquid	–	–	–	0.06158 kPa
[1], 323.51 K, Liquid	–	–	–	0.06164 kPa
[1], 325 K, Liquid	–	–	333.3	–
[1], 328.56 K, Liquid	–	–	–	0.09137 kPa and 0.09138 kPa
[1], 330 K, Liquid	–	–	339.4	–
[1], 332.75 K, Liquid	–	–	–	0.1252 kPa
[1], 335 K, Liquid	–	–	345.4	–
[1], 337.81 K, Liquid	–	–	–	0.1804 kPa
[1], 337.82 K, Liquid	–	–	–	0.1805 kPa
[1], 340 K, Liquid	–	–	351.5	–
[1], 342.89 K, Liquid	–	–	–	0.2562 kPa and 0.2563 kPa
[1], 345 K, Liquid	–	–	357.5	–
[1], 347.88 K, Liquid	–	–	–	0.3573 kPa
[1], 350 K, Liquid	–	–	363.5	–
[1], 352.88 K, Liquid	–	–	–	0.4914 kPa
[1], 352.89 K, Liquid	–	–	–	0.4914 kPa
[1], 355 K, Liquid	–	–	369.6	–
[1], 357.86 K, Liquid	–	–	–	0.6662 kPa
[1], 357.87 K, Liquid	–	–	–	0.6664 kPa
[1], 360 K, Liquid	–	–	375.6	–
[1], 362.82 K, Liquid	–	–	–	0.8914 kPa
[1], 362.83 K, Liquid	–	–	–	0.8915 kPa
[1], 365 K, Liquid	–	–	381.5	–
[1], 370 K, Liquid	–	–	387.5	–
[1], Metastable crystal, DSC	–	310	–	–
[2], Metastable crystal, DSC	2.72	–	–	–

Settings	Molar enthalpy of transition or fusion, [2] [kcal/mol]	Triple point temperature, [1] [K]
Crystal 1, Adiabatic calorimetry	3.22	315.6
Crystal 1, DSC	3.18	315.4
